Laboratory results: patent US11542266B1, “Substituted piperidines as BTK inhibitors” (HAISCO PHARMACEUTICALS PTE. LTD., priority 2019, dated 2023)
Counter-ions that a name gives are not always drawn.

What follows are compounds tested on Mino cells (assay: Inhibition of cell proliferation, Mino cells (Cell Viability Assay, 72 h)). Conditions: not given.
Type: cell-based, human
Protocol: SU-DHL-4, Mino, and SU-DHL-6 cells, in the culture medium of RPMI1640+10% FBS, were cultured in an incubator at 37° C. under 5% CO2. Cells were plated in a 96-well plate. Specifically, SU-DHL-4 cells were at 20000/well, Mino and SU-DHL-6 cells were at 5000/well, with 90 μL/well. 10 μL of the compounds at different concentrations were added to each well. There were 3 replicate wells for each concentration, and the last column, added with DMSO, was used as a vehicle control group. The cultures were continued for 72 hours at 37° C. under 5% CO2. After 72 hours, 100 μL of detection reagent (Cell Viability Assay, Promega, G7573) was added to each well, and the cultures were uniformly mixed for 2 minutes, and incubated at room temperature for 10 minutes. The fluorescence signal value was measured with a microplate reader (PHERAstar FSX). The IC50 value of the compound on cell proliferation inhibition was calculated using Origin 9.2 software, and the inhibition rate at the highest concentration of the compound (Max inhi. %) was calculated according to formula (1). Max inhi. %=(1-T72 administration/T72 vehicle)×100 Formula (1).

`Nc1ncnc2c1c(-c1ccc(Oc3ccccc3)cc1)nn2C1CCN(C2CCN(C3CN(c4ccc5c(c4)C(=O)N(C4CCC(=O)NC4=O)C5=O)C3)CC2F)CC1` (stereo not drawn) [Compound 46-1, trans-5-(3-(4-(4-amino-3-(4-phenoxyphenyl)-1H-pyrazolo[3,4-d]pyrimidin-1-yl)-3′-fluoro-[1,4′-bipiperidin]-1′-yl)azetidin-1-yl)-2-(2,6-dioxopiperidin-3-yl)isoindoline-1,3-dione-P1] gave an IC50 of 27 nM.
Compound `Nc1ncnc2c1c(-c1ccc(Oc3ccccc3)cc1)nn2C1CCN(C2CCN(C3CN(c4ccc5c(c4)C(=O)N(C4CCC(=O)NC4=O)C5=O)C3)CC2F)CC1` (stereo not drawn) [Compound 49-1, cis-5-(3-(4-(4-amino-3-(4-phenoxyphenyl)-1H-pyrazolo[3,4-d]pyrimidin-1-yl)-3′-fluoro-[1,4′-bipiperidin]-1′-yl)azetidin-1-yl)-2-(2,6-dioxopiperidin-3-yl)isoindoline-1,3-dione-P1] has an IC50 of 113 nM.

Same assay, conditions: Homo sapiens

Compared with `Nc1ncnc2c1c(-c1ccc(Oc3ccccc3)cc1)nn2C1CCN(C2CN(C3CCN(c4ccc5c(c4)C(=O)N(C4CCC(=O)NC4=O)C5=O)CC3)C2)CC1` (stereo not drawn) [Compound 23, 5-[4-[3-[4-[4-amino-3-(4-phenoxyphenyl)pyrazolo[3,4-d]pyrimidin-1-yl]-1-piperidyl]azetidin-1-yl]-1-piperidyl]-2-(2,6-dioxo-3-piperidyl)isoindoline-1,3-dione], `Nc1ncnc2c1c(-c1ccc(Oc3ccccc3)cc1)nn2C1CCN(C2CCN(C3CN(c4ccc5c(c4)C(=O)N(C4CCC(=O)NC4=O)C5=O)C3)C2)CC1` (stereo not drawn) [Compound 24, 5-[3-[3-[4-[4-amino-3-(4-phenoxyphenyl)pyrazolo[3,4-d]pyrimidin-1-yl]-1-piperidyl]pyrrolidin-1-yl]azetidin-1-yl]-2-(2,6-dioxo-3-piperidyl)isoindoline-1,3-dione] is 2.1-fold higher in IC50: 295 nM for the first, 629 nM for the second. The first is the more potent here.

First: Nc1ncnc2c1c(-c1ccc(Oc3ccccc3)cc1)nn2C1CCN(C2CCN(C3CN(c4ccc5c(c4)CN(C4CCC(=O)NC4=O)C5=O)C3)CC2)CC1 (stereo not drawn) [Compound 25, 3-[5-[3-[4-[4-[4-amino-3-(4-phenoxyphenyl)pyrazolo[3,4-d]pyrimidin-1-yl]-1-piperidyl]-1-piperidyl]azetidin-1-yl]-1-oxo-isoindolin-2-yl]piperidine-2,6-dione]
Second: Nc1ncnc2c1c(-c1ccc(Oc3ccccc3)cc1)nn2C1CCN(C2CC3(CCN(C4CN(c5ccc6c(c5)C(=O)N(C5CCC(=O)NC5=O)C6=O)C4)CC3)C2)CC1 (stereo not drawn) [Compound 50, 5-(3-(2-(4-(4-amino-3-(4-phenoxyphenyl)-1H-pyrazolo[3,4-d]pyrimidin-1-yl)piperidin-1-yl)-7-azaspiro[3.5]nonan-7-yl)azetidin-1-yl)-2-(2,6-dioxopiperidin-3-yl)isoindoline-1,3-dione]
The IC50 of the first is 2.5-fold higher: 282 nM for the first, 112 nM for the second. The second is the more potent here.

With `Nc1ncnc2c1c(-c1ccc(Oc3ccccc3)cc1)nn2C1CCN(C2CN(C3CN(c4cccc5c4C(=O)N(C4CCC(=O)NC4=O)C5=O)C3)C2)CC1` (stereo not drawn) [Compound 27, 4-[3-[3-[4-[4-amino-3-(4-phenoxyphenyl)pyrazolo[3,4-d]pyrimidin-1-yl]-1-piperidyl]azetidin-1-yl]azetidin-1-yl]-2-(2,6-dioxo-3-piperidyl)isoindoline-1,3-dione] the IC50 was 503 nM.

Same assay, conditions: inhibition rate at the highest concentration of the compound

First: Nc1ncnc2c1c(-c1ccc(Oc3ccccc3)cc1)nn2C1CCN(C2CN(C3CCN(C4CCN(c5ccc6c(c5)C(=O)N(C5CCC(=O)NC5=O)C6=O)CC4)CC3)C2)CC1 (stereo not drawn) [Compound 15, 5-[4-[4-[3-[4-[4-amino-3-(4-phenoxyphenyl)pyrazolo[3,4-d]pyrimidin-1-yl]-1-piperidyl]azetidin-1-yl]-1-piperidyl]-1-piperidyl]-2-(2,6-dioxo-3-piperidyl)isoindoline-1,3-dione]
Second: Nc1ncnc2c1c(-c1ccc(Oc3ccccc3)cc1)nn2C1CCN(C2CCN(C3CN(C4CCN(c5ccc6c(c5)C(=O)N(C5CCC(=O)NC5=O)C6=O)CC4)C3)C2)CC1 (stereo not drawn) [Compound 16, 5-[4-[3-[3-[4-[4-amino-3-(4-phenoxyphenyl)pyrazolo[3,4-d]pyrimidin-1-yl]-1-piperidyl]pyrrolidin-1-yl]azetidin-1-yl]-1-piperidyl]-2-(2,6-dioxo-3-piperidyl)isoindoline-1,3-dione]
The “Mino Max inhi. %” value of the first is higher: 99.8% for the first, 99.7% for the second.

Compared with `Nc1ncnc2c1c(-c1ccc(Oc3ccccc3)cc1)nn2C1CCN(C2CN(C3CN(c4ccc5c(c4)CN(C4CCC(=O)NC4=O)C5=O)C3)C2)CC1` (stereo not drawn) [Compound 26, 3-[5-[3-[3-[4-[4-amino-3-(4-phenoxyphenyl)pyrazolo[3,4-d]pyrimidin-1-yl]-1-piperidyl]azetidin-1-yl]azetidin-1-yl]-1-oxo-isoindolin-2-yl]piperidine-2,6-dione], `Nc1ncnc2c1c(-c1ccc(Oc3ccccc3)cc1)nn2C1CCN(C2CN(C3CN(c4ccc5c(c4)C(=O)N(C4CCC(=O)NC4=O)C5=O)C3)C2)C1` (stereo not drawn) [Compound 29, 5-(3-(3-(4-amino-3-(4-phenoxyphenyl)-1H-pyrazolo[3,4-d]pyrimidin-1-yl)pyrrolidin-1-yl)-[1,3′-biazetidin]-1′-yl)-2-(2,6-dioxopiperidin-3-yl)isoindoline-1,3-dione trifluoroacetate] is lower in “Mino Max inhi. %” value: 74.3% for the first, 71.2% for the second.

First: NC(=O)c1c(-c2ccc(Oc3ccccc3)cc2)nn2c1NCC[C@H]2C1CCN(C2CCN(C3CN(c4ccc5c(c4)C(=O)N(C4CCC(=O)NC4=O)C5=O)C3)CC2)CC1 (stereo partly drawn) [Compound 30, (7S)-7-[1-[1-[1-[2-(2,6-dioxo-3-piperidyl)-1,3-dioxo-isoindolin-5-yl]azetidin-3-yl]-4-piperidyl]-4-piperidyl]-2-(4-phenoxyphenyl)-4,5,6,7-tetrahydropyrazolo[1,5-a]pyrimidine-3-carboxamide trifluoroacetate]
Second: NC(=O)c1c(-c2ccc(Oc3ccccc3)cc2)nn2c1NCC[C@H]2C1CCN(C2CN(C3CN(c4ccc5c(c4)C(=O)N(C4CCC(=O)NC4=O)C5=O)C3)C2)CC1 (stereo partly drawn) [Compound 31, (7S)-7-[1-[1-[1-[2-(2,6-dioxo-3-piperidyl)-1,3-dioxo-isoindolin-5-yl]azetidin-3-yl]azetidin-3-yl]-4-piperidyl]-2-(4-phenoxyphenyl)-4,5,6,7-tetrahydropyrazolo[1,5-a]pyrimidine-3-carboxamide trifluoroacetate]
The “Mino Max inhi. %” value of the first is higher: 82.5% for the first, 78.3% for the second.

First: NC(=O)c1c(-c2ccc(Oc3ccccc3)cc2)nn2c1NCC[C@H]2C1CCN(C2CCN(c3ccc4c(c3)C(=O)N(C3CCC(=O)NC3=O)C4=O)CC2)CC1 (stereo partly drawn) [Compound 48, (7S)-7-(1′-(2-(2,6-dioxopiperidin-3-yl)-1,3-dioxo-isoindolin-5-yl)-[1,4′-bipiperidin]-4-yl)-2-(4-phenoxyphenyl)-4,5,6,7-tetrahydropyrazolo[1,5-a]pyrimidine-3-carboxamide]
Second: Nc1ncnc2c1c(-c1ccc(Oc3ccccc3)cc1)nn2C1CCN(C2CC3(CCN(C4CC5(CCN(c6ccc7c(c6)C(=O)N(C6CCC(=O)NC6=O)C7=O)CC5)C4)CC3)C2)CC1 (stereo not drawn) [Compound 51, 5-(2′-(4-(4-amino-3-(4-phenoxyphenyl)-1H-pyrazolo[3,4-d]pyrimidin-1-yl)piperidin-1-yl)-7,7′-diaza[2,7′-bispiro[3.5]nonan]-7-yl)-2-(2,6-dioxopiperidin-3-yl)isoindoline-1,3-dione]
The “Mino Max inhi. %” value of the first is lower: 95.7% for the first, 99.7% for the second.
